{"source": "patent US10995359B2", "about": "“Method for determining drug-sensitive human cell lines by analysis method in which measurement of activity of two types of protein kinase is used” (NITTO BOSEKI CO., LTD., priority 2015, dated 2021)", "key": {"DU4475 (IM) cells": {"tested_on": "DU4475 (IM) cells", "assay": "Drug sensitivity assay (cell growth test), sulforhodamine B", "format": "cell-based", "conditions": "Homo sapiens, DU-4475, 72 hours; for inhibition at 0.1 µM: DU4475, 100 nM, index 12.5% growth inhibition rate; for inhibition at 1 µM: DU4475, 1 μM, index 25% growth inhibition rate; for inhibition at 10 µM: DU4475, 10 μM, index 50% growth inhibition rate", "description": "(§1) Cultured cells were treated with a MEK inhibitor and a PI3K inhibitor in various concentrations, and cell lines sensitive to MEK and PI3K were classified by calculating a cell growth inhibition rate. The culture method and analysis method are as follows.\n(§2) Thirteen types of cells used in the present study, HCC38 (BL1), MDA-MB-231 (MSL), DU4475 (IM), HCC1187 (IM), HCC1143 (BL1), HCC1395 (LAR), HCC1937 (BL1), MDA-MB-453 (LAR), HCC70 (BL2), HS578T (MSL), MDA-MB-157 (MSL) and MDA-MB-468 (BL1), were obtained from American type culture collection (ATCC), and SUM185PE (LAR) was obtained from ASTERAND BIOSCIENCE. All the cells belong to triple negative breast cancer (TNBC), and it is known which of six types (BL1, BL2, M, MSL, IM and LAR) these belong to by an existing classification method.\n(§3) All the cells were cultured in a medium designated from a source of supply, and 2 mM L-glutamine and 10% fetal bovine serum (FBS) were supplemented.\n(§4) Each type of cells was seeded in a 96 well titer plate at 1×10^4 cells/well, and trametinib, an MEK inhibitor (Medchem Express; 0.08, 0.16, 0.31, 0.63, 1.25, 2.5, 5, 10 and 20 μM), and wortmannin, a PI3K inhibitor (Wako Pure Chemical Industries, Ltd.; 0.08, 0.16, 0.31, 0.63, 1.25, 2.5, 5, 10 and 20 μM) were dissolved in Dimethyl Sulfoxide [DMSO] (Wako Pure Chemical Industries, Ltd.) in various concentrations and treated. In addition, the effect on cell growth was examined at 72 hours after the inhibitor by sulforhodamine B assay (manufactured by SIGMA-ALDRICH), and 50 μL of sulforhodamine B solution was added to each well and cells were left at room temperature for an hour for staining. The staining degree of metabolically survival cells was examined by monitoring absorbance at a wavelength of 565 nm using a microtiter plate. The absorbance of cells which were not treated with trametinib and wortmannin (treated with DMSO) was used as a control and defined as 100% to calculate a cell growth inhibition rate.\n(§5) The cell lines were classified into 4 types, cell lines sensitive to wortmannin (hereinafter, PA), cell lines sensitive to trametinib (hereinafter, MA), cell lines resistant to wortmannin and trametinib (hereinafter, R), and others (hereinafter, S). In the classification, first the inhibition rate of each drug was calculated in a concentration of 1 μM, and the inhibition rate (%) by trametinib and the inhibition rate (%) by wortmannin were plotted on the X axis and Y axis respectively on a graph.\nas §5, with “100 nM,” for “1 μM,”\nas §5, with “10” for “1”, “graph. Using a 50% growth inhibition rate as an index of the inhibitive effect of a drug, cells were classified into 4 types by grid analysis.” for “graph.”"}, "HS578T (MSL) cells": {"tested_on": "HS578T (MSL) cells", "assay": "Drug sensitivity assay (cell growth test), sulforhodamine B", "format": "cell-based", "conditions": "Homo sapiens, Hs-578T, 72 hours; for inhibition at 0.1 µM: 100 nM, index 12.5% growth inhibition rate; for inhibition at 1 µM: index 25% growth inhibition rate; for inhibition at 10 µM: index 50% growth inhibition rate", "description": "as §1, §2, §3, §4, §5\nas §5, with “100 nM,” for “1 μM,”\nas §5, with “10” for “1”, “graph. Using a 50% growth inhibition rate as an index of the inhibitive effect of a drug, cells were classified into 4 types by grid analysis.” for “graph.”"}, "MDA-MB-157 (MSL) cells": {"tested_on": "MDA-MB-157 (MSL) cells", "assay": "Drug sensitivity assay (cell growth test), sulforhodamine B", "format": "cell-based", "conditions": "Homo sapiens, 72 hours; for inhibition at 0.1 µM: MDA-MB-157, 100 nM, index 12.5% growth inhibition rate; for inhibition at 1 µM: MDA-MB-157, 1 μM, index 25% growth inhibition rate; for inhibition at 10 µM: MDA-MB-157, 10 μM, index 50% growth inhibition rate", "description": "as §1, §2, §3, §4, §5\nas §5, with “100 nM,” for “1 μM,”\nas §5, with “10” for “1”, “graph. Using a 50% growth inhibition rate as an index of the inhibitive effect of a drug, cells were classified into 4 types by grid analysis.” for “graph.”"}, "HCC70 derived tumor": {"tested_on": "HCC70 derived tumor", "assay": "Test of suppressing tumor growth by drug administration using tumor-bearing mice", "format": "in vivo, nude mice", "conditions": "0.3 mg/kg orally once-daily for 14 days", "description": "(§6) A cultured triple negative breast cancer cell line was injected under the skin of nude mice to create cancer-bearing mice, and a tumor tissue was established and a PI3K inhibitor and an MEK inhibitor were then administered. Tumor volumes were measured to observe an anti-tumor effect. The method for preparing a tumor-bearing mice and the administration route are as follows.\n(§7) The cell lines of MDA-MB-231, HCC70 and SUM185PE were cultured by the above-described method, and after release with trypsin, the cells was suspended with Matrigel basement membrane matrix (manufactured by Corning Incorporated) to about 7×10^6 cells/mL to prepare a cell suspension. Using a 27 gauge syringe, 0.1 mL of cell suspension was injected under the skin of 5-week old female nude mice (manufactured by CLEA Japan, Inc.) to prepare tumor-bearing mice.\n(§8) Trametinib, an MEK inhibitor, and wortmannin, a PI3K inhibitor, were each dissolved in PBS with 1% dimethylsulfoxide (DMSO) to 0.3 mg/kg to obtain a drug solution. In addition, PBS with 1% DMSO was used as a control.\n(§9) Individuals whose tumor volume reached 300 mm^3 were randomly divided into 3 groups and administration was initiated. As an administration route, a drug solution was orally administered once-daily for 14 days and the tumor volume was observed. The tumor volume was calculated by major axis×(minor axis)^2/2.\n(§10) FIGS. 33 to 35 show the results of the test of suppressing tumor growth by each inhibitor using the number of individuals N=6 in each group (Control group, Trametinib-administered group and Wortmannin-administered group) (FIG. 33: MDA-MB-231 derived tumor-bearing mice, FIG. 34: HCC70 derived tumor-bearing mice, and FIG. 35: SUM185PE derived tumor-bearing mice). […] Mann-Whitney U test was used as the test method."}, "MDA-MB-231 derived tumor": {"tested_on": "MDA-MB-231 derived tumor", "assay": "Test of suppressing tumor growth by drug administration using tumor-bearing mice", "format": "in vivo, nude mice", "conditions": "MDA-MB-231 derived tumor-bearing mice; 0.3 mg/kg orally once-daily for 14 days", "description": "as §6, §7, §8, §9, §10"}, "SUM185PE derived tumor": {"tested_on": "SUM185PE derived tumor", "assay": "Test of suppressing tumor growth by drug administration using tumor-bearing mice", "format": "in vivo, nude mice", "conditions": "0.3 mg/kg orally once-daily for 14 days", "description": "as §6, §7, §8, §9, §10"}, "[1]": {"conditions": "read-out: inhibition rate (%) by trametinib, classification by grid analysis"}, "[2]": {"conditions": "read-out: inhibition rate (%) by wortmannin, classification by grid analysis"}}, "note": "Where two headings read alike, the source gives them in different places.", "data": [{"smiles": "CC(=O)Nc1cccc(-n2c(=O)n(C3CC3)c(=O)c3c(Nc4ccc(I)cc4F)n(C)c(=O)c(C)c32)c1", "note": "[trametinib]", "values": [{"measurement": "inhibition at 0.1 µM", "setting": "DU4475 (IM) cells; [1]", "value": "> 12.5", "unit": "%"}, {"measurement": "inhibition at 1 µM", "setting": "DU4475 (IM) cells; [1]", "value": "> 25", "unit": "%"}, {"measurement": "inhibition at 10 µM", "setting": "DU4475 (IM) cells; [1]", "value": "> 50", "unit": "%"}, {"measurement": "inhibition at 0.1 µM", "setting": "HS578T (MSL) cells; [1]", "value": "< 12.5", "unit": "%"}, {"measurement": "inhibition at 1 µM", "setting": "HS578T (MSL) cells; [1]", "value": "< 25", "unit": "%"}, {"measurement": "inhibition at 10 µM", "setting": "HS578T (MSL) cells; [1]", "value": "< 50", "unit": "%"}, {"measurement": "inhibition at 0.1 µM", "setting": "MDA-MB-157 (MSL) cells; [1]", "value": "< 12.5", "unit": "%"}, {"measurement": "inhibition at 1 µM", "setting": "MDA-MB-157 (MSL) cells; [1]", "value": "< 25", "unit": "%"}, {"measurement": "inhibition at 10 µM", "setting": "MDA-MB-157 (MSL) cells; [1]", "value": "< 50", "unit": "%"}, {"measurement": "suppression of tumor growth (in words)", "setting": "HCC70 derived tumor", "value": "a significant growth suppressive effect was observed"}, {"measurement": "suppression of tumor growth (in words)", "setting": "MDA-MB-231 derived tumor", "value": "significantly suppressed"}, {"measurement": "suppression of tumor growth (in words)", "setting": "SUM185PE derived tumor", "value": "a significant growth suppressive effect was not obtained"}]}, {"smiles": "COC[C@H]1OC(=O)c2coc3c2[C@@]1(C)C1=C(C3=O)[C@@H]2CCC(=O)[C@@]2(C)C[C@H]1OC(C)=O", "note": "[wortmannin, Wortmannin]", "values": [{"measurement": "inhibition at 0.1 µM", "setting": "DU4475 (IM) cells; [2]", "value": "< 12.5", "unit": "%"}, {"measurement": "inhibition at 1 µM", "setting": "DU4475 (IM) cells; [2]", "value": "< 25", "unit": "%"}, {"measurement": "inhibition at 10 µM", "setting": "DU4475 (IM) cells; [2]", "value": "< 50", "unit": "%"}, {"measurement": "inhibition at 0.1 µM", "setting": "HS578T (MSL) cells; [2]", "value": "< 12.5", "unit": "%"}, {"measurement": "inhibition at 1 µM", "setting": "HS578T (MSL) cells; [2]", "value": "< 25", "unit": "%"}, {"measurement": "inhibition at 10 µM", "setting": "HS578T (MSL) cells; [2]", "value": "< 50", "unit": "%"}, {"measurement": "inhibition at 0.1 µM", "setting": "MDA-MB-157 (MSL) cells; [2]", "value": "< 12.5", "unit": "%"}, {"measurement": "inhibition at 1 µM", "setting": "MDA-MB-157 (MSL) cells; [2]", "value": "< 25", "unit": "%"}, {"measurement": "inhibition at 10 µM", "setting": "MDA-MB-157 (MSL) cells; [2]", "value": "< 50", "unit": "%"}, {"measurement": "suppression of tumor growth (in words)", "setting": "HCC70 derived tumor", "value": "a significant growth suppressive effect was observed"}, {"measurement": "suppression of tumor growth (in words)", "setting": "MDA-MB-231 derived tumor", "value": "a significant suppressive effect was not obtained"}, {"measurement": "suppression of tumor growth (in words)", "setting": "SUM185PE derived tumor", "value": "significantly suppressed"}]}]}
